The values that follow come from patent publication US20120059011A1, “PHARMACEUTICAL COMPOSITIONS OF COMBINATIONS OF DIPEPTIDYL PEPTIDASE-4 INHIBITORS WITH PIOGLITAZONE” (priority 2009, published 2012).

This data set is described as follows: chemical stability of pioglitazone HCl with lubricants (disproportionation to free base). Type of data set: physicochemical. The note with it: in contact with lubricants, such as magnesium stearate and sodium stearyl fumarate. The procedure:
The pharmaceutical compositions of the present invention are prepared by wet processing methods. In one embodiment the pharmaceutical compositions are prepared by wet granulation methods, such as fluid bed granulation or high-shear granulation. In a class of this embodiment, the pharmaceutical compositions are prepared by fluid-bed granulation. Fluid bed granulation processing has the advantage of affording tablets with higher diametric strength. Further, wet processing methods utilizing an intragranular portion containing Sitagliptin phosphate monohydrate, Pioglitazone HCl, a binding agent, and optionally a disintegrant, enhance the chemical stability of Sitagliptin phosphate monohydrate and pioglitazone HCl. […] The fluid bed granulation method utilizing an intragranular portion containing Pioglitazone HCl, Sitagliptin phosphate monohydrate, a binding agent, and optionally a disintegrant, minimizes the disproportionation of Pioglitazone HCl to the pioglitazone free base.

Structures are written as SMILES. Where a name gives a salt, the structure may show the parent alone.

For the molecule `CCc1ccc(CCOc2ccc(CC3SC(=O)NC3=O)cc2)nc1` (racemic) [Pioglitazone HCl, [(±)-5-[[4-[2-(5-ethyl-2-pyridinyl)ethoxy]phenyl]-methyl]-2,4-]thiazolidinedione monohydrochloride], the “disproportionation of Pioglitazone HCl to the Pioglitazone free base” value was “react with lubricants”.
